In a melting point compilation (Tetko et al.):

SMILES | melting point
CC1(C)CC(=O)C(=NNc2ccccc2[N+](=O)[O-])C(=O)C1 | 139 to 140 °C
CC(C)N1CSc2nnc(-c3ccc([N+](=O)[O-])cc3)n2C1 | 260 °C
C1=CCCCCC1 | -56 °C
O=C(Nc1ccccc1Br)Nc1ccccc1Br | 235 to 237 °C
Cc1ccc(S(=O)(=O)n2ccc(C(=O)O)c2)cc1 | 202 to 206 °C
CCCCCC(=O)Cc1cc(O)cc2c1C(=O)Oc1cc(O)c(C(=O)O)c(CCCCC)c1O2 | 205 °C
COc1ccccc1C1(C)CCc2oc3ccc(C)cc3c2-c2oc(C)cc21 (stereo not given) | 179 °C
CC(C)NC(=S)NN | 96 to 97 °C
CCOC(=O)C(C(=O)OCC)C(C(=O)OCC)C(=O)OCC | 77 °C
COC(=O)c1cc2ccccc2cn1 | 88 to 89 °C
CNC(=S)Nc1cc(OC)c(OC)cc1C(c1ccc(C)o1)c1ccc(C)o1 | 165 °C
COc1ccc(C)cc1O | 37 to 39 °C
O=C(O)C[C@H](NC(=O)OCC1c2ccccc2-c2ccccc21)c1ccccc1 | 187 °C
Cc1cc(C(=O)O)cc(Cl)n1 | 193 °C
O=C(Oc1ccccc1)c1c2ccccc2nc2ccccc12 | 188 to 192 °C
CCOC(=O)NNC(=O)Nc1ccccc1 | 144 to 145 °C
CCCCOC(=O)CC(=O)OCCCC | -83 °C
CCc1cccc2ccccc12 | -13.9 °C
Clc1ccc2c(c1)Oc1ccc(Cl)cc1O2 | 202 °C
Oc1ccnc2ccc(C(F)(F)F)cc12 | 265 to 268 °C
Cc1ccc(C(=O)c2csc(S(N)(=O)=O)c2)cc1 | 176 °C
COC(=O)C1(S(=O)(=O)c2ccccc2)CCCC1 | 56.5 °C
O=C(O)C1CC(=O)N(Cc2ccc(F)cc2)C1 (stereo not given) | 150 to 151 °C
C=CC[C@H](NC(=O)OCC1c2ccccc2-c2ccccc21)C(=O)O | 137 °C
Cn1c(=O)c2[nH]cnc2n(C)c1=O | 270 °C

SMILES | melting point
O=C1CCC(=O)N1c1nnc(C(F)(F)F)s1 | 221 °C
O=Cc1ccc(-c2cccc(C(=O)O)c2)cc1 | 166 °C
CC1(C)C(=S)NC(c2ccccc2)N1O (stereo not given) | 193 to 195 °C
CCOC(=O)CC(=O)C(F)(F)F | -39 °C
CC1=CC=CC2(C)Cc3ccccc3C(=O)N12 (stereo not given) | 177 °C
CCCOC(N)=O | 60 °C
O=[N+]([O-])c1ccc2ncccc2c1 | 154 °C
CN=C(N)c1cc(C(C)(C)C)c(O)c(C(C)(C)C)c1 | 280 to 281 °C
CC(C)(C)SSC(C)(C)C | -5 °C
C/C(=N\N=C1C(=O)Nc2ccccc21)c1c(O)c2ccccc2n(-c2ccccc2)c1=O | 267 °C
CCOC(=O)C(C#N)=C(N)c1cc2ccccc2oc1=O | 247 to 249 °C
Cc1ccc(Oc2ncccc2N)c2c1CCC2 | 150 °C
Brc1ccc(N2CCCCC2)cc1 | 75 to 76 °C
NC(=O)/C(=N\Nc1ccc(O)cc1)c1nc2ccccc2s1 | 160 °C
COc1ccc(C2Nn3c(nnc3-c3ccccc3)S2)cc1 (stereo not given) | 160 °C
CC(C)=C1OC(=O)C1(C)C | -18 °C
Brc1ccc2nccnc2c1 | 54 to 55 °C
CCCCCCCCCCC(C)C | -26 °C
Cc1ccc(C(=O)c2nn(-c3ccccc3)/c(=N\N=Cc3ccco3)s2)cc1 | 113 °C
O=C(O)c1cc(I)c(I)c(I)c1 | 292 °C
CC1=CCC(=C(C)C)CC1 | < 25 °C
FC(=C(F)C(F)(F)F)C(F)(F)F | -129 °C
CN(C)c1ccc(C(O)c2ccc(N(C)C)cc2)cc1 | 101 °C
O=NN(CC(c1ccccc1)c1ccccc1)CC(c1ccccc1)c1ccccc1 | 179 °C
Cc1c(Cl)c(=O)oc2cc(OP(=O)(OCCCl)OCCCl)ccc12 | 91 °C
